In ChEMBL document CHEMBL5120927, “LEGO-Lipophosphonoxins: A Novel Approach in Designing Membrane Targeting Antimicrobials” (J Med Chem, 2022):
Values after ≈ are worked out from the molar mass of the structure shown.

Legend:
Staphylococcus aureus [1] = assay: Antibacterial activity against wild type Staphylococcus aureus 4740/B assessed as reduction in microbial growth incubated for 24 hrs by microdilution assay; type: functional
Staphylococcus aureus [2] = assay: Antibacterial activity against […] Staphylococcus aureus 4461/A assessed as reduction in microbial growth incubated for 24 hrs by microdilution assay; type: functional
Staphylococcus aureus [3] = assay: Antibacterial activity against wild type methicillin resistant Staphylococcus aureus 4561/A assessed as reduction in microbial growth incubated for 24 hrs by microdilution assay; type: functional
Staphylococcus aureus [4] = assay: microbe, parasite or virus in culture; settings: 4880/C, 24 h
Description: Antibacterial activity against wild type Staphylococcus aureus 4880/C assessed as reduction in microbial growth incubated for 24 hrs by microdilution assay

Staphylococcus aureus [5] = assay: Antibacterial activity against […] Staphylococcus aureus 4463/A assessed as reduction in microbial growth incubated for 24 hrs by microdilution assay; type: functional
Staphylococcus aureus [6] = assay: Antibacterial activity against wild type Staphylococcus aureus 4883/C assessed as reduction in microbial growth incubated for 24 hrs by microdilution assay; type: functional
Staphylococcus aureus [7] = assay: Antibacterial activity against wild type Staphylococcus aureus 4788/B assessed as reduction in microbial growth incubated for 24 hrs by microdilution assay; type: functional
Staphylococcus aureus [8] = assay: Antibacterial activity against wild type Staphylococcus aureus 5079/C assessed as reduction in microbial growth incubated for 24 hrs by microdilution assay; type: functional
Staphylococcus aureus [9] = assay: microbe, parasite or virus in culture; settings: 4862/C, 24 h
Description: Antibacterial activity against wild type Staphylococcus aureus 4862/C assessed as reduction in microbial growth incubated for 24 hrs by microdilution assay

Staphylococcus aureus [10] = assay: Antibacterial activity against wild type Staphylococcus aureus 4504/A assessed as reduction in microbial growth incubated for 24 hrs by microdilution assay; type: functional
Staphylococcus aureus [11] = assay: Antibacterial activity against wild type Staphylococcus aureus 78/CF assessed as reduction in microbial growth incubated for 24 hrs by microdilution assay; type: functional
Staphylococcus aureus [12] = assay: Antibacterial activity against wild type Staphylococcus aureus 77/CF assessed as reduction in microbial growth incubated for 24 hrs by microdilution assay; type: functional
Staphylococcus aureus [13] = assay: Antibacterial activity against wild type methicillin resistant Staphylococcus aureus 5017/C assessed as reduction in microbial growth incubated for 24 hrs by microdilution assay; type: functional
Staphylococcus aureus [14] = assay: Antibacterial activity against wild type Staphylococcus aureus 4566/A assessed as reduction in microbial growth incubated for 24 hrs by microdilution assay; type: functional
Staphylococcus aureus [15] = assay: Antibacterial activity against wild type Staphylococcus aureus 4904/C assessed as reduction in microbial growth incubated for 24 hrs by microdilution assay; type: functional
Staphylococcus aureus [16] = assay: Antibacterial activity against wild type Staphylococcus aureus 4717/B assessed as reduction in microbial growth incubated for 24 hrs by microdilution assay; type: functional
Staphylococcus aureus [17] = assay: Antibacterial activity against wild type Staphylococcus aureus 4557/A assessed as reduction in microbial growth incubated for 24 hrs by microdilution assay; type: functional
Staphylococcus aureus [18] = assay: Antibacterial activity against wild type methicillin resistant Staphylococcus aureus 4968/C assessed as reduction in microbial growth incubated for 24 hrs by microdilution assay; type: functional
Staphylococcus aureus [19] = assay: Antibacterial activity against wild type Staphylococcus aureus 4679/B assessed as reduction in microbial growth incubated for 24 hrs by microdilution assay; type: functional
Staphylococcus aureus [20] = assay: Antibacterial activity against wild type Staphylococcus aureus 4738/B assessed as reduction in microbial growth incubated for 24 hrs by microdilution assay; type: functional
Enterococcus faecium = assay: Antibacterial activity against vancomycin resistant Enterococcus faecium 419/ANA assessed as reduction in microbial growth incubated for 24 hrs by microdilution assay; type: functional
Pseudomonas aeruginosa [21] = assay: Antibacterial activity against Pseudomonas aeruginosa ATCC 27853 = CCM 3955 assessed as inhibition of bacterial growth incubated for 24 hrs by microdilution assay; type: functional
Staphylococcus aureus [22] = assay: Antibacterial activity against Staphylococcus aureus ATCC 29213 = CCM 4223 assessed as inhibition of bacterial growth incubated for 24 hrs by microdilution assay; type: functional
Enterococcus faecalis = assay: Antibacterial activity against Enterococcus faecalis ATCC 29212 = CCM 4224 assessed as inhibition of bacterial growth incubated for 24 hrs by microdilution assay; type: functional
[23] = Gradient chromatographic hydrophobicity index of the compound at pH 3.7 by HPLC analysis; type: ADME
Escherichia coli [24] = assay: Antibacterial activity against Escherichia coli ATCC 25922 = CCM 3954 assessed as inhibition of bacterial growth incubated for 24 hrs by microdilution assay; type: functional
Escherichia coli [25] = assay: Antibacterial activity against Escherichia coli ATCC 25922 = CCM 3954 assessed as inhibition of bacterial growth incubated for 24 hrs in presence of BSA by microdilution assay; type: functional
Staphylococcus aureus [26] = assay: Antibacterial activity against methicillin resistant Staphylococcus aureus 4591/A assessed as reduction in microbial growth incubated for 24 hrs by microdilution assay; type: functional
[27] = Hemolytic activity in human RBC assessed as haemoglobin release measured after 3 hr; type: toxicity, cell-based, Erythrocyte; settings: red blood cells (erythrocytes)
[28] = tested on: Staphylococcus epidermidis; assay: Antibacterial activity against Staphylococcus epidermidis CCM 7221 assessed as inhibition of bacterial growth incubated for 24 hrs by microdilution assay; type: functional
Escherichia coli [29] = assay: Antibacterial activity against multidrug-resistant Escherichia coli CE5556 expressing CTX-M-15 assessed as reduction in microbial growth incubated for 24 hrs by microdilution assay; type: functional
Pseudomonas aeruginosa [30] = assay: Antibacterial activity against multidrug-resistant Pseudomonas aeruginosa assessed as reduction in microbial growth incubated for 24 hrs by microdilution assay; type: functional
Staphylococcus aureus [31] = assay: Antibacterial activity against Staphylococcus aureus ATCC 29213 = CCM 4223 assessed as inhibition of bacterial growth incubated for 24 hrs in presence of BSA by microdilution assay; type: functional
[32] = Cytotoxicity against human HepG2 cells assessed as reduction in cell viability; type: toxicity, cell-based
Staphylococcus aureus [33] = assay: Antibacterial activity against wild type Staphylococcus aureus 4502/A assessed as reduction in microbial growth incubated for 24 hrs by microdilution assay; type: functional
Staphylococcus aureus [34] = assay: microbe, parasite or virus in culture; settings: 5017/C, 24 h
Description: Antibacterial activity against wild type Staphylococcus aureus 5017/C assessed as reduction in microbial growth incubated for 24 hrs by microdilution assay

Staphylococcus aureus [35] = assay: Antibacterial activity against wild type Staphylococcus aureus 4968/C assessed as reduction in microbial growth incubated for 24 hrs by microdilution assay; type: functional
Staphylococcus aureus [36] = assay: Antibacterial activity against wild type Staphylococcus aureus 4561/A assessed as reduction in microbial growth incubated for 24 hrs by microdilution assay; type: functional
Staphylococcus aureus [37] = assay: Antibacterial activity against […] Staphylococcus aureus 4460/A assessed as reduction in microbial growth incubated for 24 hrs by microdilution assay; type: functional
Staphylococcus aureus [38] = assay: Antibacterial activity against wild type Staphylococcus aureus 4515/A assessed as reduction in microbial growth incubated for 24 hrs by microdilution assay; type: functional
Staphylococcus aureus [39] = assay: Antibacterial activity against wild type Staphylococcus aureus 4482/A assessed as reduction in microbial growth incubated for 24 hrs by microdilution assay; type: functional

Row | Compound | MIC (Staphylococcus aureus [1]) | MIC (Staphylococcus aureus [2]) | MIC (Staphylococcus aureus [4]) | MIC (Staphylococcus aureus [5]) | MIC (Staphylococcus aureus [6]) | MIC (Staphylococcus aureus [7]) | MIC (Staphylococcus aureus [8]) | MIC (Staphylococcus aureus [9]) | MIC (Staphylococcus aureus [10]) | MIC (Staphylococcus aureus [11]) | MIC (Staphylococcus aureus [12]) | MIC (Staphylococcus aureus [14]) | MIC (Staphylococcus aureus [15]) | MIC (Staphylococcus aureus [16]) | MIC (Staphylococcus aureus [17]) | MIC (Staphylococcus aureus [19]) | MIC (Staphylococcus aureus [20]) | MIC (Enterococcus faecium) | MIC (Pseudomonas aeruginosa [21]) | MIC (Staphylococcus aureus [22]) | further results
1 | O=C(O)c1cn(C2CC2)c2cc(N3CCNCC3)c(F)cc2c1=O [CIPROFLOXACIN] | 0.5 µg/mL | 0.25 µg/mL | 0.25 µg/mL (≈ 0.754 µM) | 0.25 µg/mL | 0.25 µg/mL | 0.063 µg/mL | 0.25 µg/mL | 0.25 µg/mL (≈ 0.754 µM) | 0.25 µg/mL | 0.25 µg/mL | 0.5 µg/mL | 0.25 µg/mL | 0.25 µg/mL | 0.25 µg/mL | 0.25 µg/mL | 0.25 µg/mL | 0.25 µg/mL | – | – | – | MIC (Staphylococcus aureus [3]): > 8 µg/mL; MIC (Staphylococcus aureus [13]): > 8 µg/mL; MIC (Staphylococcus aureus [18]): > 8 µg/mL
2 | CCCCCCCOP(=O)(CCN(CCCN)CCCN)OCCCCCCCOP(=O)(CCN(CCCN)CCCN)OCCCCCCC.Cl.Cl.Cl.Cl.Cl.Cl (stereo not drawn) | – | – | – | – | – | – | – | – | – | – | – | – | – | – | – | – | – | 64 µg/mL | 16 µg/mL | 1 µg/mL | MIC (Enterococcus faecalis): 4 µg/mL; CHI [23]: 33.9; MIC (Escherichia coli [24]): 8 µg/mL; MIC (Escherichia coli [25]): 1 µg/mL; MIC (Staphylococcus aureus [26]): 1 µg/mL; HC50 at 3 h [27]: 287 µg/mL; MIC [28]: 0.5 µg/mL; MIC (Escherichia coli [29]): 2 µg/mL; MIC (Pseudomonas aeruginosa [30]): 8 µg/mL; MIC (Staphylococcus aureus [31]): 1 µg/mL; CC50 [32]: 89.5 µM
3 | O=C(N[C@H](CO)[C@H](O)c1ccc([N+](=O)[O-])cc1)C(Cl)Cl [CHLORAMPHENICOL] | 1 µg/mL | 2 µg/mL | 2 µg/mL (≈ 6.19 µM) | 2 µg/mL | 4 µg/mL | 2 µg/mL | 2 µg/mL | 4 µg/mL (≈ 12.4 µM) | 4 µg/mL | 1 µg/mL | 1 µg/mL | 4 µg/mL | 2 µg/mL | 4 µg/mL | 2 µg/mL | 4 µg/mL | 4 µg/mL | – | – | – | MIC (Staphylococcus aureus [33]): 2 µg/mL; MIC (Staphylococcus aureus [34]): 4 µg/mL (≈ 12.4 µM); MIC (Staphylococcus aureus [35]): 4 µg/mL; MIC (Staphylococcus aureus [36]): 4 µg/mL; MIC (Staphylococcus aureus [37]): 2 µg/mL; MIC (Staphylococcus aureus [38]): 2 µg/mL; MIC (Staphylococcus aureus [39]): 2 µg/mL
4 | CC1(C)S[C@@H]2[C@H](NC(=O)[C@H](N)c3ccccc3)C(=O)N2[C@H]1C(=O)O [AMPICILLIN] | 0.5 µg/mL | 1 µg/mL | 0.5 µg/mL (≈ 1.43 µM) | 0.5 µg/mL | 0.5 µg/mL | 0.5 µg/mL | 0.5 µg/mL | 1 µg/mL (≈ 2.86 µM) | 0.5 µg/mL | 0.5 µg/mL | 0.5 µg/mL | 0.5 µg/mL | 0.5 µg/mL | 0.5 µg/mL | 0.5 µg/mL | 1 µg/mL | 0.5 µg/mL | – | – | – | MIC (Staphylococcus aureus [33]): 0.5 µg/mL; MIC (Staphylococcus aureus [37]): 1 µg/mL; MIC (Staphylococcus aureus [38]): 0.5 µg/mL; MIC (Staphylococcus aureus [13]): > 16 µg/mL; MIC (Staphylococcus aureus [39]): 1 µg/mL
5 | CCCC/C=C\CCOP(=O)(CCN(CCCN)CCCN)OCCCCCCOP(=O)(CCN(CCCN)CCCN)OCC/C=C\CCCC.Cl.Cl.Cl.Cl.Cl.Cl (stereo not drawn) | – | – | – | – | – | – | – | – | – | – | – | – | – | – | – | – | – | 64 µg/mL | 16 µg/mL | 1 µg/mL | MIC (Enterococcus faecalis): 16 µg/mL; CHI [23]: 33.8; MIC (Escherichia coli [24]): 2 µg/mL; MIC (Escherichia coli [25]): 4 µg/mL; MIC (Staphylococcus aureus [26]): 1 µg/mL; HC50 at 3 h [27]: 34.8 µg/mL; MIC [28]: 0.5 µg/mL; MIC (Escherichia coli [29]): 2 µg/mL; MIC (Pseudomonas aeruginosa [30]): 16 µg/mL; MIC (Staphylococcus aureus [31]): 4 µg/mL; CC50 [32]: 92.5 µM
6 | CCCCOP(=O)(CCN(CCN)CCN)OCCCCCCCCCCOP(=O)(CCN(CCN)CCN)OCCCC.Cl.Cl.Cl.Cl.Cl.Cl (stereo not drawn) | – | – | – | – | – | – | – | – | – | – | – | – | – | – | – | – | – | 128 µg/mL | 64 µg/mL | 64 µg/mL | MIC (Enterococcus faecalis): 64 µg/mL; CHI [23]: 34.2; MIC (Escherichia coli [24]): 64 µg/mL; MIC (Escherichia coli [25]): > 128 µg/mL; MIC (Staphylococcus aureus [26]): 128 µg/mL; HC50 at 3 h [27]: 55 µg/mL; MIC [28]: 64 µg/mL; MIC (Escherichia coli [29]): > 128 µg/mL; MIC (Pseudomonas aeruginosa [30]): 128 µg/mL; MIC (Staphylococcus aureus [31]): > 128 µg/mL; CC50 [32]: > 99 µM
